Each block holds one compound with its values, some of them ahead of it.
Biological target: T1, glucocerebrosidase (Gcase) (Homo sapiens, UniProt P04062)
T1 construct: micellar solution containing 10 nM GCase and 100 nM saposin C
T1 sequence (P04062 40-536): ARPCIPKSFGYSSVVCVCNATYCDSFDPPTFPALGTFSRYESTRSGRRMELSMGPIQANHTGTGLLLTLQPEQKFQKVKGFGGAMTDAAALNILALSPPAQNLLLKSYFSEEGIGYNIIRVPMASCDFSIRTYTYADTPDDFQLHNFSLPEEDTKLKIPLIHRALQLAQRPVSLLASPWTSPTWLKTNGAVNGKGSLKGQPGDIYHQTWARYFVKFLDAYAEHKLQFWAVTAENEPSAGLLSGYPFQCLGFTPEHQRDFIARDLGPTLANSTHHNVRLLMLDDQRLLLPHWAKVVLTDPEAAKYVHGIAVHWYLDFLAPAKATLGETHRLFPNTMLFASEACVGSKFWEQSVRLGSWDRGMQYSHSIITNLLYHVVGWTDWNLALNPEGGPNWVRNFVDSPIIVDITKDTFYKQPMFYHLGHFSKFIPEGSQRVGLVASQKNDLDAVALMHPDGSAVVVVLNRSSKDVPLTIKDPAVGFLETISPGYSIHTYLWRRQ
Assay: Glucocerebrosidase (Gcase) activation assay with 4-methylumbelliferyl-beta-D-glucopyranoside substrate, saposin C and phosphatidylserine/triton micelles, fluorescence readout
Type: biochemical
Settings: Table 3A
Protocol: The ability of exemplary compounds to activate glucocerebrosidase (Gcase) was measured.
A 484 μL aliquot of a 1.0 mg/mL solution of phosphatidylserine (PS) (Sigma P7769) in chloroform was evaporated under a stream of nitrogen for 1 hour. The lipid film was dissolved over 4 minutes of vigorous vortexing in 40 mL of 176 mM K2HPO4/50 mM citric acid (pH 4.7) containing 7.5 μL of triton X-100, resulting in a mixed micellar preparation with a composition of 0.32 mM triton and 0.37 mol % PS. 4-Methylumbelliferyl-beta-D-glucopyranoside (ACROS-337025000) was dissolved in the micellar solution to a final concentration of 2 mM for use as the reaction substrate.
Test compounds were diluted to the desired concentrations with dimethylsulfoxide (DMSO) from 10 mM stocks, and 0.41 μL of the DMSO compound mixture was added to 100 μL of micellar solution containing 10 nM GCase and 100 nM saposin C (Enzo ALX-201-262-C050). Pre-incubation was allowed to occur for 30 minutes at room temperature, after which the reaction was initiated by combining 25 μL of substrate solution with 25 μL of compound/GCase/saposin mixture. The reaction proceeded for 15 minutes at room temperature and was stopped by adding 150 μL of 1M glycine, pH 12.5. The endpoint of the reaction was monitored by measuring fluorescence intensity (excitation: 365 nm; emission: 440 nm) on a SpectraMax i3 instrument (Molecular Devices). Test compounds were screened at 1.0 and 0.1 μM final concentration, and subsequent 8-point dose response curves were obtained using 3-fold dilutions from a maximum final concentration of 5 μM.

Structure (SMILES): Cc1cc(C)n2ncc(C(=O)NC(C)(C)C3CC3)c2n1 [III-2]
Percent Gcase Activation, 0.1 μM Test Compound: ** (Gcase activation in the range of 10% up to 20%)
Percent Gcase Activation, 1 μM Test Compound: +++ (Gcase activation greater than 60%)

Structure (SMILES): Cc1cc(C)n2ncc(C(=O)NC(CC(C)C)C3CC3)c2n1 (stereo not drawn) [III-5]
Percent Gcase Activation, 0.1 μM Test Compound: *** (greater than 20% Gcase activation)
Percent Gcase Activation, 1 μM Test Compound: +++ (Gcase activation greater than 60%)

Structure (SMILES): Cc1cc(C)n2ncc(C(=O)NC(C3CC3)C(F)(F)F)c2n1 (stereo not drawn) [III-9]
Percent Gcase Activation, 0.1 μM Test Compound: ** (Gcase activation in the range of 10% up to 20%)
Percent Gcase Activation, 1 μM Test Compound: +++ (Gcase activation greater than 60%)

Structure (SMILES): Cc1cc(C)n2ncc(C(=O)N[C@H](C3CC3)C(F)(F)F)c2n1 [III-10]
Percent Gcase Activation, 0.1 μM Test Compound: ** (Gcase activation in the range of 10% up to 20%)
Percent Gcase Activation, 1 μM Test Compound: +++ (Gcase activation greater than 60%)

Structure (SMILES): Cc1cc(C)n2ncc(C(=O)NC3(C4CC4)CC3)c2n1 [III-12]
Percent Gcase Activation, 0.1 μM Test Compound: * (less than 10% Gcase activation)
Percent Gcase Activation, 1 μM Test Compound: + (less than 30% Gcase activation)

Structure (SMILES): Cc1cc(C)n2ncc(C(=O)NC(C)(C)C3CC4(CCC4)C3)c2n1 [III-13]
Percent Gcase Activation, 0.1 μM Test Compound: *** (greater than 20% Gcase activation)
Percent Gcase Activation, 1 μM Test Compound: +++ (Gcase activation greater than 60%)

Structure (SMILES): Cc1cc(Cl)n2ncc(C(=O)NC(C)(C)C3CC3)c2n1 [III-14]
Percent Gcase Activation, 0.1 μM Test Compound: ** (Gcase activation in the range of 10% up to 20%)
Percent Gcase Activation, 1 μM Test Compound: ++ (Gcase activation in the range of 30% up to 60%)

Structure (SMILES): Cc1cc(Cl)nc2c(C(=O)NC(C)(C)C3CC3)cnn12 [III-15]
Percent Gcase Activation, 0.1 μM Test Compound: *** (greater than 20% Gcase activation)
Percent Gcase Activation, 1 μM Test Compound: +++ (Gcase activation greater than 60%)

Structure (SMILES): Cc1cc(-c2ccccn2)nc2c(C(=O)NC(C)(C)C3CC3)cnn12 [III-16]
Percent Gcase Activation, 0.1 μM Test Compound: ** (Gcase activation in the range of 10% up to 20%)
Percent Gcase Activation, 1 μM Test Compound: +++ (Gcase activation greater than 60%)

Structure (SMILES): Cc1cc(-c2ccncc2)nc2c(C(=O)NC(C)(C)C3CC3)cnn12 [III-20]
Percent Gcase Activation, 0.1 μM Test Compound: * (less than 10% Gcase activation)
Percent Gcase Activation, 1 μM Test Compound: +++ (Gcase activation greater than 60%)

Structure (SMILES): Cc1cc(N2CCCCC2)n2ncc(C(=O)NC(C)(C)C3CC3)c2n1 [III-22]
Percent Gcase Activation, 0.1 μM Test Compound: * (less than 10% Gcase activation)
Percent Gcase Activation, 1 μM Test Compound: ++ (Gcase activation in the range of 30% up to 60%)

Structure (SMILES): Cc1cc(N2CCCCC2)nc2c(C(=O)NC(C)(C)C3CC3)cnn12 [III-23]
Percent Gcase Activation, 0.1 μM Test Compound: *** (greater than 20% Gcase activation)
Percent Gcase Activation, 1 μM Test Compound: +++ (Gcase activation greater than 60%)

Structure (SMILES): Cc1cc(N2CCCCC2)n2ncc(C(=O)N[C@@H](C)C3CC3)c2n1 [III-30]
Percent Gcase Activation, 0.1 μM Test Compound: * (less than 10% Gcase activation)
Percent Gcase Activation, 1 μM Test Compound: + (less than 30% Gcase activation)

Structure (SMILES): Cc1cc(N2CCCCC2)nc2c(C(=O)NC(C)C3CC3)cnn12 (stereo not drawn) [III-31]
Percent Gcase Activation, 0.1 μM Test Compound: *** (greater than 20% Gcase activation)
Percent Gcase Activation, 1 μM Test Compound: +++ (Gcase activation greater than 60%)

Structure (SMILES): Cc1cc(-c2ccc(F)cc2)nc2c(C(=O)N[C@@H](C)C3CC3)c(Cl)nn12 [III-32]
Percent Gcase Activation, 0.1 μM Test Compound: ** (Gcase activation in the range of 10% up to 20%)
Percent Gcase Activation, 1 μM Test Compound: +++ (Gcase activation greater than 60%)

Structure (SMILES): Cc1cc(-c2ccc(F)cc2)n2nc(Cl)c(C(=O)N[C@@H](C)C3CC3)c2n1 [III-33]
Percent Gcase Activation, 0.1 μM Test Compound: * (less than 10% Gcase activation)
Percent Gcase Activation, 1 μM Test Compound: ++ (Gcase activation in the range of 30% up to 60%)

Structure (SMILES): Cc1cc(C)n2nc(Cl)c(C(=O)N[C@@H](C)C3CC3)c2n1 [III-34]
Percent Gcase Activation, 0.1 μM Test Compound: * (less than 10% Gcase activation)
Percent Gcase Activation, 1 μM Test Compound: + (less than 30% Gcase activation)

Structure (SMILES): Cc1cc(-c2ccccn2)nc2c(C(=O)NC(C3CC3)C(F)(F)F)cnn12 (stereo not drawn) [III-36]
Percent Gcase Activation, 0.1 μM Test Compound: *** (greater than 20% Gcase activation)
Percent Gcase Activation, 1 μM Test Compound: +++ (Gcase activation greater than 60%)

Structure (SMILES): Cc1cc(-c2cccnc2)nc2c(C(=O)N[C@H](C)c3ccc(Cl)cc3)cnn12 [III-37]
Percent Gcase Activation, 0.1 μM Test Compound: ** (Gcase activation in the range of 10% up to 20%)
Percent Gcase Activation, 1 μM Test Compound: +++ (Gcase activation greater than 60%)

Structure (SMILES): Cc1cc(-c2cccnc2)nc2c(C(=O)N[C@H]3CC[C@H](OC(C)(C)C)CC3)cnn12 [III-38]
Percent Gcase Activation, 0.1 μM Test Compound: * (less than 10% Gcase activation)
Percent Gcase Activation, 1 μM Test Compound: + (less than 30% Gcase activation)

Continued, in another order:

Percent Gcase Activation, 0.1 μM Test Compound: * (less than 10% Gcase activation)
Structure (SMILES): Cc1cc(C)n2ncc(C(=O)N[C@@H](C)C3CC3)c2n1 [III-1]
Percent Gcase Activation, 1 μM Test Compound: ++ (Gcase activation in the range of 30% up to 60%)

Percent Gcase Activation, 0.1 μM Test Compound: *** (greater than 20% Gcase activation)
Percent Gcase Activation, 1 μM Test Compound: +++ (Gcase activation greater than 60%)
Structure (SMILES): Cc1cc(C)n2ncc(C(=O)N[C@H](C)C3CCCCC3)c2n1 [III-3]

Percent Gcase Activation, 0.1 μM Test Compound: *** (greater than 20% Gcase activation)
Percent Gcase Activation, 1 μM Test Compound: +++ (Gcase activation greater than 60%)
Structure (SMILES): Cc1cc(C)n2ncc(C(=O)N[C@@H](C)C3CCCCC3)c2n1 [III-4]

Percent Gcase Activation, 0.1 μM Test Compound: * (less than 10% Gcase activation)
Structure (SMILES): CNc1cc(C)n2ncc(C(=O)N[C@@H](C)C3CC3)c2n1 [III-6]
Percent Gcase Activation, 1 μM Test Compound: ++ (Gcase activation in the range of 30% up to 60%)

Percent Gcase Activation, 1 μM Test Compound: +++ (Gcase activation greater than 60%)
Structure (SMILES): Cc1cc(-c2ccc(F)cc2)nc2c(C(=O)N[C@@H](C)C3CC3)cnn12 [III-7]
Percent Gcase Activation, 0.1 μM Test Compound: ** (Gcase activation in the range of 10% up to 20%)

Percent Gcase Activation, 0.1 μM Test Compound: * (less than 10% Gcase activation)
Percent Gcase Activation, 1 μM Test Compound: + (less than 30% Gcase activation)
Structure (SMILES): Cc1cc(-c2ccc(F)cc2)n2ncc(C(=O)N[C@@H](C)C3CC3)c2n1 [III-8]

Percent Gcase Activation, 1 μM Test Compound: +++ (Gcase activation greater than 60%)
Structure (SMILES): Cc1cc(C)n2ncc(C(=O)N[C@@H](C3CC3)C(F)(F)F)c2n1 [III-11]
Percent Gcase Activation, 0.1 μM Test Compound: ** (Gcase activation in the range of 10% up to 20%)

Percent Gcase Activation, 0.1 μM Test Compound: * (less than 10% Gcase activation)
Percent Gcase Activation, 1 μM Test Compound: + (less than 30% Gcase activation)
Structure (SMILES): Cc1cc(-c2ccccn2)n2ncc(C(=O)NC(C)(C)C3CC3)c2n1 [III-17]

Percent Gcase Activation, 1 μM Test Compound: +++ (Gcase activation greater than 60%)
Structure (SMILES): Cc1cc(-c2cccnc2)nc2c(C(=O)NC(C)(C)C3CC3)cnn12 [III-18]
Percent Gcase Activation, 0.1 μM Test Compound: ** (Gcase activation in the range of 10% up to 20%)

Percent Gcase Activation, 0.1 μM Test Compound: * (less than 10% Gcase activation)
Percent Gcase Activation, 1 μM Test Compound: + (less than 30% Gcase activation)
Structure (SMILES): Cc1cc(-c2cccnc2)n2ncc(C(=O)NC(C)(C)C3CC3)c2n1 [III-19]

Percent Gcase Activation, 0.1 μM Test Compound: * (less than 10% Gcase activation)
Percent Gcase Activation, 1 μM Test Compound: + (less than 30% Gcase activation)
Structure (SMILES): Cc1cc(-c2ccncc2)n2ncc(C(=O)NC(C)(C)C3CC3)c2n1 [III-21]

Percent Gcase Activation, 0.1 μM Test Compound: * (less than 10% Gcase activation)
Percent Gcase Activation, 1 μM Test Compound: + (less than 30% Gcase activation)
Structure (SMILES): Cc1cc(-c2ccccn2)n2ncc(C(=O)N[C@@H](C)C3CC3)c2n1 [III-25]

Percent Gcase Activation, 0.1 μM Test Compound: * (less than 10% Gcase activation)
Percent Gcase Activation, 1 μM Test Compound: + (less than 30% Gcase activation)
Structure (SMILES): Cc1cc(-c2cccnc2)n2ncc(C(=O)N[C@@H](C)C3CC3)c2n1 [III-27]

Percent Gcase Activation, 0.1 μM Test Compound: * (less than 10% Gcase activation)
Structure (SMILES): Cc1cc(-c2ccncc2)nc2c(C(=O)NC(C)C3CC3)cnn12 (stereo not drawn) [III-28]
Percent Gcase Activation, 1 μM Test Compound: ++ (Gcase activation in the range of 30% up to 60%)

Percent Gcase Activation, 0.1 μM Test Compound: * (less than 10% Gcase activation)
Percent Gcase Activation, 1 μM Test Compound: + (less than 30% Gcase activation)
Structure (SMILES): Cc1cc(-c2ccncc2)n2ncc(C(=O)N[C@@H](C)C3CC3)c2n1 [III-29]

Percent Gcase Activation, 1 μM Test Compound: +++ (Gcase activation greater than 60%)
Structure (SMILES): Cc1cc(-c2cccnc2)nc2c(C(=O)NC(C3CC3)C(F)(F)F)cnn12 (stereo not drawn) [III-35]
Percent Gcase Activation, 0.1 μM Test Compound: ** (Gcase activation in the range of 10% up to 20%)

Reference: patent publication US10934298B2, “Substituted pyrazolo[1,5-a]pyrimidines for the treatment of medical disorders” (BIAL—BioTech Investments, Inc., priority 2016, dated 2021)
